Laboratory results as given in patent publication US11203574B2 (BioCryst Pharmaceuticals, Inc., priority 2014, dated 2021).

These molecules were tested against human plasma kallikrein (Homo sapiens (Human), UniProt P03952) (assay: Plasma kallikrein activity assay (chromogenic substrate S2302)). Details: 2 nM kallikrein, 80 μM S2302, 30° C., pH 7.8; Ki by Cheng-Prusoff equation; values given as ranges; read-out: Ki.
Sequence of human plasma kallikrein (P03952 whole entry, looked up): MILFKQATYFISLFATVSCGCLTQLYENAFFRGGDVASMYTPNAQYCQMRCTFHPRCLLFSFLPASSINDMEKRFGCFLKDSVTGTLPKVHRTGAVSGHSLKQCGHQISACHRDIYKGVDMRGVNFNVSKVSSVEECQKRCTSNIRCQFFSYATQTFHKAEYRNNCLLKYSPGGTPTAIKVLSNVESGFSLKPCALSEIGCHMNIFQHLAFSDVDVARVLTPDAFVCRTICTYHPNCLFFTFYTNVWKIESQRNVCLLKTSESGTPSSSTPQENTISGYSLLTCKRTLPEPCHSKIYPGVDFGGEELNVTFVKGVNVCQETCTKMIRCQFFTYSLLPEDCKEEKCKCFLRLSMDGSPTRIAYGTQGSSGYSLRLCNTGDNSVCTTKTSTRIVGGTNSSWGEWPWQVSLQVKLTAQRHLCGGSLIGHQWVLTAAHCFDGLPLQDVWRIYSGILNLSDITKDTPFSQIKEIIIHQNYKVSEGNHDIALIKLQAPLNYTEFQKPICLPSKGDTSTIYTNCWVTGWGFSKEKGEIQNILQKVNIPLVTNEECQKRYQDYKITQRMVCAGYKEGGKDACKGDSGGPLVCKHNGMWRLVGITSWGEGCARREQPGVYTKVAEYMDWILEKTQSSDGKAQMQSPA
Sequence of human plasma kallikrein (P03952 whole entry partner, looked up): as the sequence (P03952 whole entry, looked up) above
Type: biochemical
Work on NCc1cccc(-n2nc(C(F)(F)F)cc2C(=O)Nc2cccc(C(NCC3CC3)c3ccc(Cl)cc3)c2)c1 (stereo not drawn) [199f] yielded a Ki of 0.1 to 50 nM.
COc1ccc(C(NCC2CC2)c2cccc(NC(=O)c3cc(C(F)(F)F)nn3-c3cccc(CN)c3)c2)c2ccccc12 (stereo not drawn) [154e, 1-(3-(aminomethyl)phenyl)-N-(3-((cyclopropylmethylamino)(4-methoxynaphthalen-1-yl)methyl)phenyl)-3-(trifluoromethyl)-1H-pyrazole-5-carboxamide] showed a Ki of 0.1 to 50 nM.
CS(=O)(=O)c1ccccc1C(NCC1CC1)c1cccc(NC(=O)c2cc(C(F)(F)F)nn2-c2cccc(CN)c2)c1 (stereo not drawn) [121f, 1-(3-(aminomethyl)phenyl)-N-(3-((cyclopropylmethylamino)(2-(methylsulfonyl)phenyl)methyl)phenyl)-3-(trifluoromethyl)-1H-pyrazole-5-carboxamide] was tested, and the Ki was 0.1 to 50 nM.
NCc1cccc(-n2nc(C(F)(F)F)cc2C(=O)Nc2cccc(C(NCC3CC3)c3ccccc3OCc3ccccc3)c2)c1 (stereo not drawn) [106a, 1-(3-(aminomethyl)phenyl)-N-(3-((2-(benzyloxy)phenyl)(cyclopropylmethylamino)methyl)phenyl)-3-(trifluoromethyl)-1H-pyrazole-5-carboxamide] was tested, and the Ki was 0.1 to 50 nM.
With Cn1cc(C(NCC2CC2)c2cccc(NC(=O)c3cc(C(F)(F)F)nn3-c3cccc(CN)c3)c2)cn1 (stereo not drawn) [104f, 1-(3-(aminomethyl)phenyl)-N-(3-((cyclopropylmethylamino)(1-methyl-1H-pyrazol-4-yl)methyl)phenyl)-3-(trifluoromethyl)-1H-pyrazole-5-carboxamide] the Ki was 0.1 to 50 nM.
Work on CCOC(c1ccccc1)c1ccc(F)c(NC(=O)c2cc(C(F)(F)F)nn2-c2cccc(CN)c2)c1 (stereo not drawn) [25b, 1-(3-(aminomethyl)phenyl)-N-(5-(ethoxy(phenyl)methyl)-2-fluorophenyl)-3-(trifluoromethyl)-1H-pyrazole-5-carboxamide] yielded a Ki of 50 to 100 nM.
In the case of CCCN(c1ccccc1)c1cccc(NC(=O)c2cc(C(F)(F)F)nn2-c2cccc(CN)c2)c1 [27f, 1-(3-(aminomethyl)phenyl)-N-(3-(phenyl(propyl)amino)phenyl)-3-(trifluoromethyl)-1H-pyrazole-5-carboxamide], the Ki is reported as 50 to 100 nM.
N#Cc1ccc(C(N)(CCC2CC2)c2ccc(F)c(NC(=O)c3cc(C(F)(F)F)nn3-c3cccc(C(=N)N)c3)c2)cc1 (single isomer, unassigned; (+)) [241a, (+)-N-(5-(1-amino-1-(4-cyanophenyl)-3-cyclopropylpropyl)-2-fluorophenyl)-1-(3-carbamimidoylphenyl)-3-(trifluoromethyl)-1H-pyrazole-5-carboxamide] showed a Ki of 0.1 to 50 nM.
NCc1cccc(-n2nc(C(F)(F)F)cc2C(=O)Nc2cccc(C(CCC3CC3)c3ccccc3)c2)c1 (stereo not drawn) [78d, 1-(3-(aminomethyl)phenyl)-N-(3-(3-cyclopropyl-1-phenylpropyl)phenyl)-3-(trifluoromethyl)-1H-pyrazole-5-carboxamide] gave a Ki of 0.1 to 50 nM.
For NCc1cccc(-n2nc(C(F)(F)F)cc2C(=O)Nc2cccc(C(OCC3CC3)c3cccc(N)c3)c2)c1 (stereo not drawn) [53f, 1-(3-(aminomethyl)phenyl)-N-(3-((3-aminophenyl)(cyclopropyl-methoxy)methyl)phenyl)-3-(trifluoromethyl)-1H-pyrazole-5-carboxamide], the Ki was 0.1 to 50 nM.
CCC(=O)NC(CCC1CC1)(c1cccnc1)c1ccc(F)c(NC(=O)c2cc(C(F)(F)F)nn2-c2cccc(CN)c2)c1 (single isomer, unassigned; (-)) [244i, (−)-1-(3-(aminomethyl)phenyl)-N-(5-(3-cyclopropyl-1-propionamido-1-(pyridin-3-yl)propyl)-2-fluorophenyl)-3-(trifluoromethyl)-1H-pyrazole-5-carboxamide] was tested, and the Ki was 0.1 to 50 nM.
NCc1cccc(-n2nc(C(F)(F)F)cc2C(=O)Nc2cccc(C(O)(CCC3CC3)c3cccnc3)c2)c1 (racemic) [47f, 1-(3-(aminomethyl)phenyl)-N-(3-(3-cyclopropyl-1-hydroxy-1-(pyridin-3-yl)propyl)phenyl)-3-(trifluoromethyl)-1H-pyrazole-5-carboxamide] showed a Ki of 0.1 to 50 nM.
For NCc1cccc(-n2nc(C(F)(F)F)cc2C(=O)Nc2cccc(C(CCC3CC3)c3cc[nH]c3)c2)c1 (stereo not drawn) [103b, 1-(3-(aminomethyl)phenyl)-N-(3-(3-cyclopropyl-1-(1H-pyrrol-3-yl)propyl)phenyl)-3-(trifluoromethyl)-1H-pyrazole-5-carboxamide], the Ki was 0.1 to 50 nM.
NCc1cccc(-n2nc(C(F)(F)F)cc2C(=O)Nc2cccc(C(NCC3CC3)c3cccc(C(F)(F)F)c3)c2)c1 (stereo not drawn) [111f, 1-(3-(Aminomethyl)phenyl)-N-(3-((cyclopropylmethylamino)(3-(trifluoromethyl)phenyl)methyl)phenyl)-3-(trifluoromethyl)-1H-pyrazole-5-carboxamide] showed a Ki of 0.1 to 50 nM.
In the case of CCCN(c1ccccc1)c1ccc(F)c(NC(=O)c2cc(C(F)(F)F)nn2-c2cccc(CN)c2)c1 [77e, 1-(3-(aminomethyl)phenyl)-N-(2-fluoro-5-(phenyl(propyl)amino)phenyl)-3-(trifluoromethyl)-1H-pyrazole-5-carboxamide], the Ki is reported as 0.1 to 50 nM.
Work on Cc1ccc(C(NCC2CC2)c2cccc(NC(=O)c3cc(C(F)(F)F)nn3-c3cccc(CN)c3)c2)cc1 (stereo not drawn) [122g, 1-(3-(aminomethyl)phenyl)-N-(3-(((cyclopropylmethyl)amino)(p-tolyl)methyl)phenyl)-3-(trifluoromethyl)-1H-pyrazole-5-carboxamide] yielded a Ki of 0.1 to 50 nM.
Work on N#Cc1ccc(C(N)(CCC2CC2)c2cccc(NC(=O)c3cc(C(F)(F)F)nn3-c3cccc(CN)c3)c2)cc1 (single isomer, unassigned; (+)) [218c, (+)-N-(3-(1-amino-1-(4-cyanophenyl)-3-cyclopropylpropyl)phenyl)-1-(3-(aminomethyl)phenyl)-3-(trifluoromethyl)-1H-pyrazole-5-carboxamide] yielded a Ki of 0.1 to 50 nM.
With CC(C)(C)C(=O)NC(CCC1CC1)(c1cccnc1)c1ccc(F)c(NC(=O)c2cc(C(F)(F)F)nn2-c2cccc(CN)c2)c1 (single isomer, unassigned; (-)) [244g, (−)-1-(3-(aminomethyl)phenyl)-N-(5-(3-cyclopropyl-1-pivalamido-1-(pyridin-3-yl)propyl)-2-fluorophenyl)-3-(trifluoromethyl)-1H-pyrazole-5-carboxamide] the Ki was 0.1 to 50 nM.
In the case of NCc1cccc(-n2nc(C(F)(F)F)cc2C(=O)Nc2cc(C(NCC3CC3)c3cccc(N)c3)ccc2F)c1 (stereo not drawn) [131b, 1-(3-(aminomethyl)phenyl)-N-(5-((3-aminophenyl)(cyclopropylmethylamino)methyl)-2-fluorophenyl)-3-(trifluoromethyl)-1H-pyrazole-5-carboxamide], the Ki is reported as 0.1 to 50 nM.
NCc1cccc(-n2nc(C(F)(F)F)cc2C(=O)Nc2cccc(C(OCC3CC3)c3ccccc3)c2F)c1 (stereo not drawn) [36d, 1-(3-(aminomethyl)phenyl)-N-(3-((cyclopropylmethoxy)(phenyl)methyl)-2-fluorophenyl)-3-(trifluoromethyl)-1H-pyrazole-5-carboxamide] showed a Ki of 0.1 to 50 nM.
Work on NCc1cccc(-n2nc(C(F)(F)F)cc2C(=O)Nc2cccc(C(NCC3CC3)c3cccc4c3OCO4)c2)c1 (stereo not drawn) [192f, 1-(3-(aminomethyl)phenyl)-N-(3-(benzo[d][1,3]dioxol-4-yl(cyclopropylmethylamino)methyl)phenyl)-3-(trifluoromethyl)-1H-pyrazole-5-carboxamide] yielded a Ki of 0.1 to 50 nM.
